In ChEMBL document CHEMBL3352748, “Lead optimization of imidazopyrazines: a new class of antimalarial with activity on Plasmodium liver stages” (ACS Med Chem Lett, 2014):
≈ marks a conversion by molar mass, not a printed value.

Columns and labels:
Plasmodium cynomolgi [1] = assay: Antiplasmodial activity against hypnozoite liver stage Plasmodium cynomolgi; format: functional, organism-based
Plasmodium falciparum = assay: Antiplasmodial activity against schizont blood stage Plasmodium falciparum; format: functional, organism-based
Plasmodium yoelii = assay: Antiplasmodial activity against blood stage schizont Plasmodium yoelii; format: functional, organism-based
[2] = Solubility of the compound at pH 6.8 by HT-equilibrium solubility assay; format: physicochemical; details: buffer
[3] = Half life in mouse liver microsomes by LC/MS analysis; format: ADME
Plasmodium cynomolgi [4] = assay: Antiplasmodial activity against schizont liver stage Plasmodium cynomolgi; format: functional, organism-based
[5] = Hepatic extraction ratio in mouse liver microsomes by LC/MS analysis; format: ADME; details: read-out: ERH
[6] = Volume of distribution at steady state in mouse at 5 mg/kg, iv; format: ADME, organism-based; parameters: dose 5 mg/kg, route intravenous; details: in vivo, read-out: Vdss
[7] = Half life in mouse at 20 mg/kg, po; format: ADME, organism-based; parameters: dose 20 mg/kg, route oral; details: in vivo
[8] = Clearance in mouse at 5 mg/kg, iv; format: ADME, organism-based; parameters: dose 5 mg/kg, route intravenous; details: in vivo
[9] = Cmax in mouse at 20 mg/kg, po; format: ADME, organism-based; parameters: dose 20 mg/kg, route oral; details: in vivo
[10] = AUC in mouse at 20 mg/kg, po; format: ADME, organism-based; parameters: dose 20 mg/kg, route oral; details: plasma
[11] = Half life in mouse at 5 mg/kg, iv; format: ADME, organism-based; parameters: dose 5 mg/kg, route intravenous; details: in vivo
[12] = Tmax in mouse at 20 mg/kg, po; format: ADME, organism-based; parameters: dose 20 mg/kg, route oral; details: in vivo
[13] = Oral bioavailability in mouse at 20 mg/kg; format: ADME, organism-based; details: in vivo
Plasmodium berghei = assay: Antimalarial activity against Plasmodium berghei infected in mouse assessed as animal protection at 30 mg/kg, po by causal prophylactic activity assay relative to untreated control; format: functional

Structure (SMILES) | IC50 (Plasmodium cynomolgi [1]) [nM] | IC50 (Plasmodium falciparum) [nM] | IC50 (Plasmodium yoelii) [nM] | solubility thermodynamic [2] [µM] | half-life [3] [h] | IC50 (Plasmodium cynomolgi [4]) [nM] | hepatic extraction ratio [5] | Vd [6] [L/kg] | half-life [7] [h] | clearance [8] [mL/min/kg] | Cmax [9] [µM] | AUC [10] [µM·h] | half-life [11] [h] | Tmax [12] [h] | bioavailability [13] [%] | Activity (Plasmodium berghei) [%]
CN(C(=O)c1ccc2ncc(-c3ccc(C#N)cc3)n2c1)c1ccccc1 | > 10000 | 600 | > 10000 |  |  |  |  |  |  |  |  |  |  |  |  | 
CN(C(=O)c1ccc2ncc(-c3ccc(C(F)(F)F)cc3)n2c1)c1ccc(C#N)cc1 | > 10000 | 11 | 5400 |  |  |  |  |  |  |  |  |  |  |  |  | 
CN(C(=O)c1cn2c(-c3ccc(C(F)(F)F)cc3)cnc2cn1)c1ccc(C#N)cc1 | 810 | 63 | 160 | 9 (≈ 3.79 µg/mL) | 1.37 | 120 | 0.4 |  |  |  |  |  |  |  |  | 
CN(C(=O)c1cn2c(-c3ccc(C(F)(F)F)cc3)cnc2cn1)c1ccc(Cl)nc1 |  | 275 | 200 |  |  |  |  |  |  |  |  |  |  |  |  | 
CN(C(=O)c1cn2c(-c3ccc(C(F)(F)F)cc3)cnc2cn1)c1ccc(C#N)nc1 |  | 1630 | 3630 |  |  |  |  |  |  |  |  |  |  |  |  | 
Cc1ccc(N(C)C(=O)c2cn3c(-c4ccc(C(F)(F)F)cc4)cnc3cn2)nn1 |  | > 10000 | > 10000 |  |  |  |  |  |  |  |  |  |  |  |  | 
CN(C(=O)c1cn2c(-c3ccc(C(F)(F)F)cc3)cnc2cn1)c1nc2ccccc2s1 |  | 9580 | > 10000 |  |  |  |  |  |  |  |  |  |  |  |  | 
CN(Cc1ccc(F)cc1)C(=O)c1cn2c(-c3ccc(C(F)(F)F)cc3)cnc2cn1 |  | > 10000 | > 10000 |  |  |  |  |  |  |  |  |  |  |  |  | 
CN1CCC(N(C)C(=O)c2cn3c(-c4ccc(C(F)(F)F)cc4)cnc3cn2)CC1 |  | > 10000 | > 10000 |  |  |  |  |  |  |  |  |  |  |  |  | 
CN(C(=O)c1cn2c(-c3ccc(-c4ccn[nH]4)cc3)cnc2cn1)c1ccc(C#N)cc1 | 300 | 32 | 46 |  |  | 300 |  |  |  |  |  |  |  |  |  | 
CN(C(=O)c1cn2c(-c3ccc(-c4nnc(N)s4)cc3)cnc2cn1)c1ccc(C#N)cc1 | 60 | 22 | 19 | < 5 |  | 40 |  | 0.99 | 3.39 | 16.2 | 0.02 | 0.12 | 2.12 | 1.7 | 0.24 | 
CN(C(=O)c1cn2c(-c3ccc(C(N)=O)cc3)cnc2cn1)c1ccc(F)cc1 | 260 | 56 | 62 | 170 (≈ 66.2 µg/mL) | 0.95 | 190 | 0.52 | 0.9 | 1.35 | 39.7 | 8.3 | 11.1 | 0.62 | 0.5 | 51.6 | 80
CNC(=O)c1ccc(-c2cnc3cnc(C(=O)N(C)c4ccc(C#N)cc4)cn23)cc1 | 94 | 131 | 290 | 430 (≈ 176 µg/mL) | 2.08 | 81 | 0.33 | 1.02 | 1.63 | 34 | 5.2 | 12.4 | 0.42 | 0.5 | 51.9 | 80
CNC(=O)c1ccc(-c2cnc3cnc(C(=O)N(C)c4ccc(Cl)cc4)cn23)cc1 | 196 | 58 | 36 | 820 (≈ 344 µg/mL) | 1.05 | 105 | 0.49 | 0.96 | 3.63 | 19.3 | 20.5 | 31.2 | 0.83 | 0.5 | 60 | 
